Results taken from patent US20130296346A1, “DIPHENYL-AMINE DERIVATIVES: USES, PROCESS OF SYNTHESIS AND PHARMACEUTICAL COMPOSITIONS” (Faes Farma, S.A., priority 2010, published 2013).
Marks after values point to notes of the source that are not given here.

What was measured:
resting human PBLs = experiment: Apoptosis of resting human PBLs; assay type: cell-based
Experimental: To isolate normal peripheral blood lymphocytes (PBLs), mononuclear cells were obtained from fresh human peripheral blood from healthy volunteers by centrifugation on Ficoll-Hypaque density gradients, washed with phosphate-buffered saline (PBS), and resuspended in RPMI-1640 medium containing 10% (v/v) heat-inactivated FBS, 2 mM L-glutamine, 100 U/ml penicillin, and 100 μg/ml streptomycin as described (Cabaner et al. Br. J. Pharmacol 127:813-825.1999). Monocytes were depleted by culture dish adherence after overnight incubation. Nonadherent cells (lymphocytes) were washed with PBS and collected. PBL preparations were typically 70-75% CD3^+, 24-29% CD 19^+, and less than 0.4% CD 14^+.

MM1S cells = experiment: Multiple myeloma xenograft animal model; assay type: in vivo, CB17-SCID mice; settings: 2.5 mg/kg i.v. 3 times/week
Experimental: The multiple myeloma (MM) MM1S cell line was cultured in RPMI-1640 medium containing 10% (v/v) heat-inactivated fetal bovine serum, 2 mM L-glutamine, 100 U/ml penicillin, and 100 μg/ml streptomycin at 37° C. in humidified 95% air and 5% CO2. Cells were periodically tested for Mycoplasma infection and found to be negative.
CB 17-severe combined immunodeficiency (SCID) mice (Charles River laboratories, Lyon, France), kept and handled according to institutional guidelines, complying with Spanish legislation under a 12/12 h light/dark cycle at a temperature of 22° C., received a standard diet and acidified water ad libitum. CB17-SCID mice were inoculated subcutaneously into their lower dorsum with 3×10^7MM1S cells in 100 μl PBS and 100 μl Matrigel basement membrane matrix (Becton Dickinson). When tumors were palpable, mice were randomly assigned into cohorts of 10 mice each, receiving i.v. administration (3 times/week) of the compound at the tail. The volume used for each i. v. administration was […] rendering a final drug concentration of 2.5 mg/kg (body weight). Mice i.v. administered with an equal volume of vehicle were run in parallel. The shortest and longest diameter of the tumor were measured with calipers, and tumor volume (10^−3 cm^3) was calculated using the following standard formula: […]. Animals were sacrificed, according to institutional guidelines, when the diameter of their tumors reached 3 cm or when significant toxicity was observed. Animal body weight and any sign of morbidity were monitored. Drug treatment was for 1 month. Then, tumors were isolated, measured and weighed, and a necropsy analysis involving tumors and distinct organs was carried out.

HCT-116 and SW620 cells = experiment: Expression of apoptosis-related proteins by immunoblotting; assay type: cell-based, human; settings: colon carcinoma cells, 10 μM
Experimental: Induction of apoptosis in human colon cancer HCT-116 cell line by Compound 3 (FIG. 8A). The induction of apoptosis was quantitated as the percentage of cells in the sub-G1 region (hypodiplody) of cell cycle analysis. Briefly, cells (5×10^5) were centrifuged and fixed overnight in 70% ethanol at 4° C. Cells were washed 3 times with PBS, incubated for 1 h with 1 mg/ml RNaseA and 20 μg/ml propidium iodide at room temperature, and then analyzed for cell cycle with a Becton Dickinson FACSCalibur flow cytometer (San Jose, Calif.). HCT-116 cells were incubated for the indicated times with 10 μM Compound 3, and apoptosis was then quantitated as percentage of cells in the sub-G1 region in cell cycle analysis by flow cytometry. The position of the sub-G1 peak (hypodiploidy), integrated by apoptotic cells, as well as the G0/G1 and G2/M peaks are indicated by arrows. Untreated control cells were run in parallel. The percentage of cells with a DNA content less than G1 (sub-G1) is indicated in each histogram. The experiment shown is representative of three performed Expression of different apoptosis-related proteins during Compound 3 treatment (FIG. 8B), HCT-116 and SW620 cells were treated with 10 μM Compound 3 for the indicated times and analyzed by immunoblotting with specific antibodies for the indicated proteins. The migration positions of the different proteins are indicated. β-actin was used as a loading control. Data shown are representative of three experiments performed. About 10^7 cells were pelleted by centrifugation, washed with PBS, and lysed. […]

Fc1ccc(CNCCCC=C(c2ccccc2)c2ccccc2)cc1 [Compound 3, (5,5-diphenyl-pent-4-enyl)-(4-fluoro-benzyl)-amine hydrocloride]
% Apoptosis PBLs (resting human PBLs; 10^−4 M): 7.5% | % Apoptosis PBLs (resting human PBLs; 10^−5 M): 1.3% | effect on PBLs (resting human PBLs; even at 10^−4 M): hardly affect PBLs | MM tumor volume, difference over the control for all measure days (MM1S cells; 1 month): stadistically significant | Tumor Volume (MM1S cells; ex vivo after 1 month): 0.288 cm^3 | Tumor Weight (MM1S cells; ex vivo after 1 month): 0.647 g | Inhibition (%) of Tumor Volume (MM1S cells; vs control, 1 month): 92.26** % | Inhibition (%) of Tumor Weight (MM1S cells; vs control, 1 month): 85.84* % | caspase-9 (HCT-116 and SW620 cells): induction | expression of Mcl-1S (HCT-116 and SW620 cells): induced the expression | protein level of p53 (HCT-116 and SW620 cells): increased
